pIC50: −log10 of the molar value.
Experiments:
Assay in all cases: Inhibition of ALDH isoenzymes (NAD(P)H formation at 340 nm, purified recombinant enzyme);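 on ALDH2 % Control at 20 μM: run at 25 °C, started by adding substrate after 2 min preincubation, with 100-200 nM ALDH2, 200 µM NAD+, 100 µM propionaldehyde, 1% DMSO in BES buffer pH 7.5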
Assay type in all cases: biochemical
[1] = molecular target: T1, ALDH1A3 (Homo sapiens, UniProt P47895); conditions: for pIC50: 100-200 nM enzyme, 200 μM NAD+, 100 μM propionaldehyde, pH 7.5, 25° C.; for remaining activity at 20 µM: compound at 20 μM, read-out: ALDH1A3 % Control at 20 μM
T1 sequence (P47895 1-512): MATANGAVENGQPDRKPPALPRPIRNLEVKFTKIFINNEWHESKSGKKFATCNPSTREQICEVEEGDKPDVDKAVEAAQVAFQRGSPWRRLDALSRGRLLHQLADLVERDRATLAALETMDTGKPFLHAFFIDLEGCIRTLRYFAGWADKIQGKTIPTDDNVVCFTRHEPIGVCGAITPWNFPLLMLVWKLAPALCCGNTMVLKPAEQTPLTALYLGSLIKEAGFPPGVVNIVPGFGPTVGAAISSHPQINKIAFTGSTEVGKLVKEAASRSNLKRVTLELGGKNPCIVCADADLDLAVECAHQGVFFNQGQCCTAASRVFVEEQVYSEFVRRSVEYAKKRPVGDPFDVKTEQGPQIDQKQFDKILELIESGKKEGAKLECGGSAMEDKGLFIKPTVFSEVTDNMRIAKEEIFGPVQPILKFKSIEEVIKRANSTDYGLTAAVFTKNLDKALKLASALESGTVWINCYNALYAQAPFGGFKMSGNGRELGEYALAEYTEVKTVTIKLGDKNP

[2] = molecular target: T2, ALDH1A2 (Homo sapiens, UniProt O94788); conditions: for pIC50: 100-200 nM enzyme, 200 μM NAD+, 100 μM propionaldehyde, pH 7.5, 25° C.; for remaining activity at 20 µM: compound at 20 μM, read-out: ALDH1A2 % Control at 20 μM
T2 sequence (O94788 1-518): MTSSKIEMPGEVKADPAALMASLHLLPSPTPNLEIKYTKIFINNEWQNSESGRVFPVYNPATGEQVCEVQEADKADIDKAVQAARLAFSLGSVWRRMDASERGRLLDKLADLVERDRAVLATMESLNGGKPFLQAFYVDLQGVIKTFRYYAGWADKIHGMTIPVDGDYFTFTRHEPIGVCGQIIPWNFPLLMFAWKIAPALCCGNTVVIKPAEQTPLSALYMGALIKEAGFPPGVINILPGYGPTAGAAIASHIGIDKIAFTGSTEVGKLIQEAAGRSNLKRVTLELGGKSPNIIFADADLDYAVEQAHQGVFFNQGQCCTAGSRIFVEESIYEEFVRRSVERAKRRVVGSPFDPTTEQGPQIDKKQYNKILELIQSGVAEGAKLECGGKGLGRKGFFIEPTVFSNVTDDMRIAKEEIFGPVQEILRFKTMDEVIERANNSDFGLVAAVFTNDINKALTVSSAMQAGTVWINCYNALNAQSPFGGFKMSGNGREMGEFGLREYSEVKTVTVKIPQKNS

[3] = molecular target: T3, ALDH1A1 (Homo sapiens, UniProt P00352); conditions: for pIC50: 100-200 nM enzyme, 200 μM NAD+, 100 μM propionaldehyde, pH 7.5, 25° C.; for remaining activity at 20 µM: compound at 20 μM, read-out: ALDH1A1 % Control at 20 μM
T3 sequence (P00352 1-501): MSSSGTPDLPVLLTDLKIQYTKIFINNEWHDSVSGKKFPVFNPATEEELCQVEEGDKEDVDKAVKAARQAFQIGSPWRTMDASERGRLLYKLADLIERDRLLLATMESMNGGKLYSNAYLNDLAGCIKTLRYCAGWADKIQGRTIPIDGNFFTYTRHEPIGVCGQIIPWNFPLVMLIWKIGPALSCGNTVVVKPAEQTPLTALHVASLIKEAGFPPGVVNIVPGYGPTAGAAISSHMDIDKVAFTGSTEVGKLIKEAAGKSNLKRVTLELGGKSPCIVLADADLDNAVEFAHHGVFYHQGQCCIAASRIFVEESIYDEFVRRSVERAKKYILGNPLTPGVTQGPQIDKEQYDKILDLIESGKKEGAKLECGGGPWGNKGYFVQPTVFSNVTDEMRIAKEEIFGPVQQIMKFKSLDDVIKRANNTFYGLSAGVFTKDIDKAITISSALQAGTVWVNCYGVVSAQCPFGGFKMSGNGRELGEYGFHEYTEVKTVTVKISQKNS

[4] = molecular target: T4, ALDH2 (Homo sapiens, UniProt P05091); conditions: compound at 20 μM; read-out: ALDH2 % Control at 20 μM;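 further: run at 25 °C, started by adding substrate after 2 min preincubation, with 100-200 nM ALDH2, 200 µM NAD+, 100 µM propionaldehyde, 1% DMSO in BES buffer pH 7.5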
T4 sequence (P05091 18-517): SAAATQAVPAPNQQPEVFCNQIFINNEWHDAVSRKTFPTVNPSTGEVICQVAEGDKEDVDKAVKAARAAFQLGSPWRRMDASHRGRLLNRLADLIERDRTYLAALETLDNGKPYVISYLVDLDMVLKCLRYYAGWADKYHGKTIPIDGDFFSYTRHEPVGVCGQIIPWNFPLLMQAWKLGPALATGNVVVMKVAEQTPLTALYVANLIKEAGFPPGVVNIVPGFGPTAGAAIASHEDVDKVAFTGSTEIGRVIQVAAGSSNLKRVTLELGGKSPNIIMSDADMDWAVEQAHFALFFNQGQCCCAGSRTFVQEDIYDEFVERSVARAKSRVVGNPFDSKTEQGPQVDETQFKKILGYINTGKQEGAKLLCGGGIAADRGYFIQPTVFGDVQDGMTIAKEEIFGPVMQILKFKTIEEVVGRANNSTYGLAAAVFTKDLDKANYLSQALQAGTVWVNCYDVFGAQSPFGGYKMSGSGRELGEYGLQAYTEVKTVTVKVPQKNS

Row | Structure (SMILES) | pIC50 [1] | pIC50 [2] | pIC50 [3] | remaining activity at 20 µM [4] [%] | remaining activity at 20 µM [3] [%] | remaining activity at 20 µM [1] [%] | remaining activity at 20 µM [2] [%]
1 | Cc1ccccc1-n1c(SCc2cccc(F)c2)nc2[nH]ncc2c1=O [Example 1, 6-((3-fluorobenzyl)thio)-5-(o-tolyl)-1H-pyrazolo[3,4-d]pyrimidin-4(5H)-one] | < 4.70 | 5.33 |  |  |  |  | 
2 | CCn1ncc2c(=O)n(-c3ccccc3C)c(SCc3cccc(F)c3)nc21 [Example 5, 1-ethyl-6-((3-fluorobenzyl)thio)-5-(o-tolyl)-1H-pyrazolo[3,4-d]pyrimidin-4(5H)-one] | < 5.00 | 4.82 | 6.46 | 93 |  |  | 
3 | CCn1cc2c(=O)n(-c3ccccc3C)c(SCc3cccc(F)c3)nc2n1 [Example 6, 2-ethyl-6-((3-fluorobenzyl)thio)-5-(o-tolyl)-2H-pyrazolo[3,4-d]pyrimidin-4(5H)-one] | 5.12 | 5.28 | 6.40 | 91 |  |  | 
4 | O=c1c2cnn(C3COC3)c2nc(SCc2cccc(F)c2)n1-c1ccccc1 [Example 18, 6-((3-fluorobenzyl)thio)-1-(oxetan-3-yl)-5-phenyl-H-pyrazolo[3,4-d]pyrimidin-4(5H)-one] |  |  |  |  | 2 | 9 | 7
5 | Cc1ccccc1-n1c(NCc2cccc(F)c2)nc2[nH]ncc2c1=O [Example 22, 6-((3-fluorobenzyl)amino)-5-(o-tolyl)-1H-pyrazolo[3,4-d]pyrimidin-4(5H)-one] |  |  |  | 96 | 61 | 90 | 96
6 | Cc1ccccc1-n1c(NCCc2cccc(F)c2)nc2c(cnn2C)c1=O [Example 23, 6-((3-fluorophenethyl)amino)-1-methyl-5-(o-tolyl)-1H-pyrazolo[3,4-d]pyrimidin-4(5H)-one] |  |  |  | 94 | 66 | 100 | 68
7 | Cc1ccccc1-n1c(OCc2cccc(F)c2)nc2c(cnn2C)c1=O [Example 24, 6-((3-fluorobenzyl)oxy)-1-methyl-5-(o-tolyl)-1H-pyrazolo[3,4-d]pyrimidin-4(5H)-one] |  |  | 5.92 | 95 |  | 66 | 72
8 | Cn1ncc2c(=O)n(-c3ccccc3)c(COc3cccc(F)c3)nc21 [Example 25, 6-((3-fluorophenoxy)methyl)-1-methyl-5-phenyl-1H-pyrazolo[3,4-d]pyrimidin-4(5H)-one] |  |  |  | 101 | 24 | 83 | 65
9 | Cn1ncc2c(=O)n(-c3ccccc3)c(CNCc3cccc(F)c3)nc21 [Example 26, 6-(((3-fluorobenzyl)amino)methyl)-1-methyl-5-phenyl-1H-pyrazolo[3,4-d]pyrimidin-4(5H)-one] |  |  |  | 98 | 28 | 74 | 77
10 | Cc1ccccc1-n1c(SCc2cccc(F)c2)nc2n[nH]c(C)c2c1=O [Example 39, 6-((3-fluorobenzyl)thio)-3-methyl-5-(o-tolyl)-2H-pyrazolo[3,4-d]pyrimidin-4(5H)-one] |  |  | 5.92 | 95 |  | 79 | 93
11 | Cn1ncc2c(=O)n(C3CCCCC3)c(SCc3cccc(F)c3)nc21 [Example 44, 5-cyclohexyl-6-((3-fluorobenzyl)thio)-1-methyl-1H-pyrazolo[3,4-d]pyrimidin-4(5H)-one] |  |  |  | 177 | 37 | 43 | 36
12 | Cn1ncc2c(=O)n(C3CCCC3)c(SCc3cccc(F)c3)nc21 [Example 45, 5-cyclopentyl-6-((3-fluorobenzyl)thio)-1-methyl-1H-pyrazolo[3,4-d]pyrimidin-4(5H)-one] |  |  |  | 117 | 46 | 95 | 37
13 | Cn1ncc2c(=O)n(C3CCC3)c(SCc3cccc(F)c3)nc21 [Example 46, 5-cyclobutyl-6-((3-fluorobenzyl)thio)-1-methyl-1H-pyrazolo[3,4-d]pyrimidin-4(5H)-one] |  |  |  | 96 | 28 | 73 | 14
14 | Cn1ncc2c(=O)n(-c3ccccc3)c(CCc3cccc(F)c3)nc21 [Example 48, 6-(3-fluorophenethyl)-1-methyl-5-phenyl-1H-pyrazolo[3,4-d]pyrimidin-4(5H)-one] |  |  |  | 98 | 24 | 26 | 
15 | Cn1ncc2c(=O)n(-c3ccccc3)c(COCc3cccc(F)c3)nc21 [Example 50, 6-(((3-fluorobenzyl)oxy)methyl)-1-methyl-5-phenyl-1H-pyrazolo[3,4-d]pyrimidin-4(5H)-one] |  |  |  | 101 | 15 | 37 | 52
16 | Cn1ncc2c(=O)n(-c3ccccc3)c(SCC(=O)c3ccccc3)nc21 [Example 52, 1-methyl-6-((2-oxo-2-phenylethyl)thio)-5-phenyl-1H-pyrazolo[3,4-d]pyrimidin-4(5H)-one] | 7.02 | 6.89 | 6.26 | 91 |  |  | 
17 | Cn1ncc2c(=O)n(-c3ccccc3)c(SCc3cccc(C#N)c3)nc21 [Example 53, 3-(((1-methyl-4-oxo-5-phenyl-4,5-dihydro-1H-pyrazolo[3,4-d]pyrimidin-6-yl)thio)methyl)benzonitrile] |  |  |  | 95 | 24 | 32 | 30
18 | Cn1ncc2c(=O)n(-c3ccccc3F)c(SCc3cccc(F)c3)nc21 [Example 56, 6-((3-fluorobenzyl)thio)-5-(2-fluorophenyl)-1-methyl-1H-pyrazolo[3,4-d]pyrimidin-4(5H)-one] |  |  |  |  |  | 9 | 
19 | CC(Sc1nc2c(cnn2C)c(=O)n1-c1ccccc1)c1ccccn1 (centres unmarked) [Example 79, 1-methyl-5-phenyl-6-((1-(pyridin-2-yl)ethyl)thio)-1H-pyrazolo[3,4-d]pyrimidin-4(5H)-one] |  |  |  | 92 | 9 |  | 1
20 | CC(Sc1nc2c(cnn2C)c(=O)n1-c1ccccc1)c1cccnc1 (centres unmarked) [Example 80, 1-methyl-5-phenyl-6-((1-(pyridin-3-yl)ethyl)thio)-1H-pyrazolo[3,4-d]pyrimidin-4(5H)-one] |  |  |  | 96 | 6 |  | 7
